This is an account of results in patent EP3102180B1, “A TOPICAL COMPOSITION” (Unilever N.V., priority 2014, dated 2015).

Holding throughout (assay type): cell-based
For test [1], the system named is IL-17. In words: Co-treatment with different actives, cytokine ELISA in PBMCs. As to conditions: co-treatment with 0.001% active, 25 ng PMA/ 1 µg lonomycin; control 2244. A general note: In an ELISA, binding on a coated surface is turned into a signal by an enzyme label.
Test [2] deals with IL-8. As to the kind of experiment: IL-8 ELISA in keratinocytes induced with LPS, heat killed or live P. acnes. The protocol: (§1) The procedure used to measure the anti-inflammatory potential of the various samples was as follows: The primary keratinocytes were seeded in a 24 well plate (80000 cell/well). On attaining full confluency, the cells were pretreated with the active for 24 hours. Inflammation was induced either through using LPS or through use of live and heat treated P. acnes for 24 hours. The cell-supernatant was then taken and frozen. The cytokine levels in these supernatants were detected by ELISA.
The experiments as shown in Table - 6 were studies using keratinocyte cell lines and the IL-8 concentration was measured. Table - 6
Examples K, 9 and 10: Experiments similar to J, 7 and 8 except that live p.acne was used

Test [3] deals with IL-17. In words: IL-17 ELISA in PBMCs pretreated with active, induced with PMA/ionomycin. As to conditions: PBMCs pretreated with 0.001% active for 24 hours, induction 24 hours with 25 ng PMA/ 1 µg lonomycin; control 732; lower = more anti-inflammatory. The protocol: (§2) The procedure used to measure the anti-inflammatory potential of the various samples was as follows: Blood was diluted with equal volume of HBSS or PBS(1:1). The PBMCs were isolated into fresh tube. These PBMC's were then plated in 96 well plate (10^6 cell/well). They were then pretreated with the active (for 24 hours). Induction was then carried out with antigen/mitogen for 24 hours. The cell-supernatant was then taken and frozen. The cytokine levels in these supernatants were detected by ELISA.

The test system of test [4] is TNF-alpha. In words: TNF-alpha ELISA in PBMCs pretreated with active, induced with PMA/ionomycin. The conditions noted are these: 0.001% active, 25 ng PMA/ 1 µg lonomycin, control 5384, lower = more anti-inflammatory. As for the experimental part: as §2
The experiments were conducted using a similar procedure as earlier except that TNF-alpha ELISA was measured as a marker. Table -2

In test [5] the test system is IL-8. In words: IL-8 ELISA in PBMCs exposed to P.acne (with or without antimicrobial treatment of the bacteria). As for the experimental part: Actives/ Compositions as shown in Table-8 were measured for effect on inflammatory marker IL-8 using the following procedure: PBMCs were isolated as discussed before for Example-1. They were then plated in a 96-well plate. In some wells, cells were pre-treated with 0.001% Andrographolide for 24 hours and some wells were not treated with anything. P.acne culture was grown on CY agar medium in aneorobic chamber and then culture was set to the .005 O.D. Bacterial culture was treated with antimicrobial active combination of thymol (0.05%) and terpineol (0.05%) for 30 seconds. After the contact time is over, sample was neutralized in D/E neutralizer. The bacterial pellet was collected by centrifugation. The pellet was re-suspended in cell culture medium and bacterial culture was added to the cells (PBMC's) treated with andrographolide and also bacterial culture was added to the wells where there was no treatment with andrographolide. Live P.acne (not treated with the antimicrobial actives) was added to the wells where there was no treatment with andrographolide and also added to the wells treated with andrographolide. The treated cells were incubated in 37° C incubator for 24 hours. After 24 hours the supernatant was removed and ELISA was done for IL-8 marker.
The same procedure was followed as explained in the previous section for this experiment. The antimicrobials which were used for this experiment were thymol, terpineol, Triclosan (TCN) and Trichlorocarban (TCC). The used concentrations of these antimicrobials and the concentration of the IL-8 marker after the treatment are summarized in the following Table 9. Table - 9

For test [6], the system named is TNF-alpha. In words: TNF-alpha ELISA in primary keratinocytes, LPS-induced inflammation. The conditions noted are these: primary keratinocytes pretreated 24 hours with 0.001% active, 25 µg LPS; control 283. As for the experimental part: as §1
In test [7] the test system is TNF-alpha. In words: TNF-alpha ELISA in PBMCs exposed to P.acne (with or without antimicrobial treatment of the bacteria). As to conditions: Table 10: PBMCs; Andrographolide pre-treatment (0.001% per procedure); P.acne treated with 0.05% Thymol, 0.05% Terpineol or 0.2% Silver Oxide; P.acne alone 635.6.
Another test concerns bacterial cells. As to the kind of experiment: Antibacterial contact-time kill test (pour plate count after neutralisation). As to conditions: 0.2% TCC or 0.2% thymol + 0.5% terpineol. As for the experimental part:
Efficacy of two compositions as shown in Table - 4 were measured as follows: The O.D of the bacterial cells were adjusted such that it corresponds to 1X10^8 cells of bacteria. 1ml of the bacterial culture was taken and added to 9 ml of the test solution (containing the antimicrobial active). The mixture was kept for the desired amount of time after which it was neutralized by adding 1 ml of mix to the 9 ml of D/E neutralizer. It was then serially diluted till 10^5. The number of bacteria was then enumerated by using the pour plate method.

The mark [8] stands for this setting: Table 9: PBMCs, Andrographolide pre-treatment (0.001% per procedure), P.acne treated with 0.05% Thymol, 0.05% Terpineol, 0.2% TCC, 0.2% TCN or 0.2% Silver Oxide, P.acne alone 641.5.

Each structure is given as a SMILES string.

Take `C=C1CC[C@@H]2[C@](C)(CO)[C@H](O)CC[C@@]2(C)[C@@H]1C/C=C1/C(=O)OC[C@H]1O` [Andrographolide, andrographolide]: the IL-17 concentration in the test with IL-17 [1] was determined as 1187 pg/mL; in the test with IL-17 [3], 143 pg/mL. Also, the IL-8 concentration worked out at 229 pg/mL in the test with IL-8 [2] (0.01% active, inducer 50 µg LPS, control 649); 1088 pg/mL with IL-8 [2] (0.01% active, inducer heat killed P. acnes, control 2238); 337 pg/mL in the test on IL-8 [2] (0.01% active, inducer live P. acnes, control 558); 78 pg/mL with IL-8 [2] (0.1% active, inducer 50 µg LPS, control 649); 230 pg/mL with IL-8 [2] (0.1% active, inducer heat killed P. acnes, control 2238); 205 pg/mL in the test with IL-8 [2] (0.1% active, inducer live P. acnes, control 558). For the same compound, the IL-8 concentration was found to be 400 pg/mL in the test on IL-8 [5] (Table 8: PBMCs pre-treated with 0.001% Andrographolide for 24 hours and/or P.acne treated with thymol (0.05%) and terpineol (0.05%) for 30 seconds, P. acnes alone 957); 276.48 pg/mL in the test on IL-8 [5] (setting [8]). In addition, the TNF-alpha concentration with TNF-alpha [4] turned out to be 58 pg/mL; in the test on TNF-alpha [6], 156 pg/mL; in the test on TNF-alpha [7] it was 231.15 pg/mL.

On to `CC1=C(/C=C/C(C)=C/C=C/C(C)=C/C(=O)O)C(C)(C)CCC1` [Retinoic acid], for which the IL-17 concentration in the test on IL-17 [1] was 2762 pg/mL.

On to `CC1=C(/C=C/C(C)=C/C=C/C(C)=C/CO)C(C)(C)CCC1` [Retinol], for which the IL-17 concentration in the test with IL-17 [1] amounted to 2006 pg/mL.

`[Ag+].[Ag+].[O-2]` [Silver Oxide, silver oxide, reference compound]: the IL-8 concentration with IL-8 [5] (setting [8]) was found to be 599.8 pg/mL. Also, the TNF-alpha concentration in the test on TNF-alpha [7] is 494.3 pg/mL.

As for `CCC(C)(C)C(=O)O[C@H]1C[C@@H](C)C=C2C=C[C@H](C)[C@H](CC[C@@H]3C[C@@H](O)CC(=O)O3)[C@H]21` [Simvastatin, reference compound], the IL-17 concentration in the test on IL-17 [3] turned out to be 493 pg/mL.

Consider `O=C(Nc1ccc(Cl)cc1)Nc1ccc(Cl)c(Cl)c1` [TCC, Trichlorocarbanilide], for which the “Log CFU/ml” value in the test with bacterial cells (contact time 15 seconds, 1X10^8 cells of bacteria) is 7.1 Log CFU/ml; with bacterial cells (contact time 30 seconds) it was 7.1 Log CFU/ml; with bacterial cells (contact time 1 minute), 7.1 Log CFU/ml; in the test with bacterial cells (contact time 5 minutes), 7.1 Log CFU/ml. Moreover, the IL-8 concentration in the test with IL-8 [5] (setting [8]) came out at 626.48 pg/mL.

Regarding `Oc1cc(Cl)ccc1Oc1ccc(Cl)cc1Cl` [TCN, Triclosan, reference compound], in the test with IL-8 [5] (setting [8]), the IL-8 concentration amounted to 613.15 pg/mL.

As to `Cc1ccc(C(C)C)c(O)c1` [Thymol, thymol], the IL-8 concentration with IL-8 [5] (setting [8]) was found to be 546.38 pg/mL. In addition, in the test with TNF-alpha [7], the TNF-alpha concentration was 546.94 pg/mL.
